Read-outs that look alike come from different tables or passages of the source.
Assays:
[1] = Extracellular (serum) nutrient levels by mass spectrometry (LC-MS, GC-MS, ICP-MS); conditions: Level: Serum, person; for Follow-up Nutrient Level: after customized blend; for Actual Nutrient Value (ANV): before customized blend
Description: In some embodiments, the detection method assesses nutrients both in extracellular plasma and intracellular in RBC and WBC. In some embodiments, the detection method is mass spectroscopy-based. The extracellular and intracellular nutrient levels provide a comprehensive analysis of a subject's nutrient status, reflecting not only the intake levels but also the absorption levels into the cells.
In some aspects, the extracellular nutrient levels provide a snapshot of the status of nutrient baseline levels at a given time. It is a reflection of a person's diet over a narrow period of time. In contrast, the intracellular levels of nutrients provide information on the absorbed levels of nutrients, thus accounting for factors such as aging, lifestyle, chronic illness, medication, etc. that could interfere with absorption and can change the functional nutritional levels.
In some embodiments, the detection method is mass spectrometry. In some embodiments, the detection method is Liquid chromatography-mass spectrometry (LC-MS), Gas chromatography-mass spectrometry (GC-MS), or Inductively coupled plasma-mass-spectrometry (ICP-MS). In some embodiments, the detection method is Liquid chromatography-mass spectrometry (LC-MS). In some embodiments, the detection method is Gas chromatography-mass spectrometry (GC-MS). In some embodiments, the detection method is Inductively coupled plasma-mass-spectrometry (ICP-MS).
In some embodiments, the method provided herein evaluates nutrient levels, both in extracellular serum and inside (intracellular) red blood cells (RBC) and/or white blood cells (WBC). The extracellular nutrient levels provide a snapshot of the status of nutrient baseline levels at a given time. These extracellular nutrient levels are a reflection of a person's diet over a narrow period of time. In contrast, RBCs have a normal lifespan of 120 days, and thus intracellular assessments for nutrients in RBCs can provide information on nutrients over longer periods. Additionally, the intracellular levels of nutrients provide information on the absorbed levels of nutrients, thus accounting for factors such as, but not limited to, aging, lifestyle, chronic illness, and medication, that can interfere with absorption and can change the functional nutritional levels. Moreover, actual nutrient utilization occurs inside the cell owing to cellular metabolic processes. At times, nutrients could be present in serum, but poor cellular uptake may result in cells being devoid of these nutrients, thus giving rise to nutrient deficiencies owing to affected cellular activities. […] As a result, it is important to assess nutrients intracellularly in addition to extracellularly. Thus, the intracellular assessment provides information on cellular uptake and utilization of nutrients at the most fundamental level, enabling understanding of the root cause of nutrient deficiencies.
The subject individual fills out the health questionnaire (PHQ) which helps establishes factors such as symptoms, complications, comorbidities, and ongoing medications. The subject's blood is drawn and the extracellular serum and intracellular blood cells are tested for nutritional deficiencies via mass spectroscopy (e.g., Liquid chromatography-mass spectrometry (LC-MS), Gas chromatography-mass spectrometry (GC-MS), or Inductively coupled plasma-mass-spectrometry (ICP-MS)).

[2] = NutriPro test: serum, RBC and WBC nutrient values before and after ATB / customized blend; assay type: in vivo, human
Description: The method for providing a nutritional supplement for a subject as disclosed herein is based on a comprehensive panel that assesses intracellular and extracellular levels of at least or up to 41 nutrients. […] Blood analysis using the method disclosed herein tests for nutrient levels in serum, red blood cells (RBCs), and white blood cells (WBCs). Additional genetic testing can assess patients' predispositions toward nutrient deficiencies. Based on the blood and genetic analysis results, a subsequent supplementation diet comprising supplements and food sources can be designed and implemented. The subject can be a human subject.
In some embodiments, the detection method is mass spectrometry.
The ‘NutriPro’ test is used to assess serum (extracellular), RBC, and WBC (intracellular) nutrient values along with genetic testing for any predispositions with could be affecting nutrient values in the body. If required, additional tests such as the gut zoomer, cardiovascular health, thyroid test, kidney function test, liver function test, etc, are carried out. FIG. 1 provides a schematic diagram of the process of the NutriPro test from the individual subject to the creation of customized nutritional blends.
The ATB is given to the individual for nutritional supplementation, and blood testing for nutrients in serum, RBC, and WBC is carried out after 3 or 6 months.
The assessed change is called the VAF.
After testing, the individual takes the ATB or the customized blend for the amount of time indicated.

[3] = human, in vivo
[4] = Vibrant Absorption Factor (VAF): difference of post- and pre-supplementation nutrient values divided by ATB dosage
[5] = cited from earlier work
[6] = in vivo
[7] = Zone Approach: nutrient zone (Zone 1-5), target nutrient zone and follow-up zone; assay type: in vivo, human; conditions: Example 5: person, Zone Approach, CB followed for three months
Description: The second exemplary approach includes determining nutrient zones, and thus is referred to as the “Zone Approach.” According to some embodiments, the nutrient reference range for individuals can be divided into a number of zones, each indicating a nutrient wellness level. […] In some embodiments, for a given nutrient, each zone is associated with a specific multiplication factor, which can be used to determine the appropriate dosage for the CB. A few exemplary methods following this Zone Approach are further described hereinafter. […] Based on the assessment results, the current zone for each nutrient is determined at step 420a. In some embodiments, the genetic predispositions and cellular levels may influence the determination of the overall zone for a nutrient. […] This adjustment accounts for the impact of genetic polymorphisms and suboptimal cellular levels, each reducing the nutrient's zone by one or more zones. Therefore, this approach takes one or more of cellular and serum nutrient levels, along with their nutrient genetic profile into consideration to determine a given nutrient's overall zone. In the next, the Target Nutrient Zone (TNZ) to which the individual's each nutrient level is to be optimized is determined at step 430. […] In some embodiments, the determined TNZ is used to determine the multiplication factor used to adjust the starting dosage at step 440a, resulting in the CB dosage for each nutrient. In various embodiments, the multiplication factor is a fixed constant value, previously determined for a nutrient when moving from a first zone to a second zone. […] At step 450a, the CB with the determined nutrient dosages is administered to the individual for a predefined period. In some embodiments, a follow-up test is periodically conducted at step 460, to monitor the progress towards the target nutrient levels during the predefined period, for example, to check whether a target zone is reached or not for a given nutrient. In some embodiments, based on the results from the follow-up tests, it is further determined whether the dosage of the CB for a nutrient requires adjustment. If the adjustment is necessary, appropriate modification is made to the CB, for example, by increasing the TNZ to increase the nutrient levels. The modified CB is administered to the individual, and a reassessment is conducted again. In some embodiments, the personalized dosage of the nutritional supplement in the CB is modified as above after the at least one, two, three, four, five, six, seven, eight, nine, ten, or more repeats.

[8] = person two, serum, after customized blend
[9] = person one, cells, after customized blend
[10] = person two, cells, after customized blend
[11] = person one, serum, after customized blend
[12] = person three, serum, after customized blend
[13] = person three, serum, before customized blend

| Post-test biomarker level ([2]; person two, serum, after ATB) | Follow-up Biomarker level [2, 8] | Pre-test biomarker level ([2]; person two, serum, before ATB) | VAF ([4]; person two, serum) | Compound | Follow-up Nutrient Level [1] | Actual Nutrient Value (ANV) [1] | Post-test biomarker level ([2]; person one, cells, after ATB) | Follow-up Biomarker level [2, 9] | Pre-test biomarker level ([2]; person one, cells, before ATB) | Post-test biomarker level ([2]; person two, cells, after ATB) | Follow-up Biomarker level [2, 10] | Pre-test biomarker level ([2]; person two, cells, before ATB) | VAF ([4]; person one, cells) | VAF ([4]; person two, cells) | also measured |
| --- | --- | --- | --- | --- | --- | --- | --- | --- | --- | --- | --- | --- | --- | --- | --- |
| – | – | – | – | [K+] [Potassium] | 3.4 mmol/L | 2.8 mmol/L | – | – | – | – | – | – | – | – | – |
| – | – | – | – | [Se] [Selenium] | – | – | – | – | – | – | – | – | – | – | Follow-up Biomarker level ([2]; female, human, in vivo): 267 ng/mL; Post-test biomarker level ([2]; female, human, in vivo): 122 ng/mL; Pre-test biomarker level ([2]; female, human, in vivo): 105 ng/mL; Actual Nutrient Value (ANV) ([2]; male, human, in vivo): 190 ng/mL; Follow-up Biomarker level ([2]; male, human, in vivo): 259 ng/mL; Follow-up Nutrient Level ([2]; male, human, in vivo): 267 ng/mL; Post-test biomarker level ([2]; male, human, in vivo): 167 ng/mL; Pre-test biomarker level ([2]; male, human, in vivo): 140 ng/mL; VAF ([3]; female): 2.267; VAF ([3]; male): 3.6 |
| – | – | – | – | O=C1O[C@H]([C@@H](O)CO)C(O)=C1O [Vitamin C] | 2300 µg/L | 1000 µg/L | 1.1 pg/MM WBC | 9.2 pg/MM WBC | 0.05 pg/MM WBC | 1.1 pg/MM WBC | 8.3 pg/MM WBC | 0.1 pg/MM WBC | 0.07 | 0.06667 | – |
| – | – | – | – | C=C1CC[C@H](O)C/C1=C/C=C1\CCC[C@]2(C)[C@@H]([C@H](C)CCCC(C)C)CC[C@@H]12 [Vitamin D3] | 0.72 µg/L | 0.1 µg/L | 18.9 pg/MM WBC | 212 pg/MM WBC | 12.2 pg/MM WBC | 18.9 pg/MM WBC | 221 pg/MM WBC | 12.2 pg/MM WBC | 0.067 | 0.067 | Post-test biomarker level ([2]; person one, serum, after ATB): 2.3 ng/mL; Follow-up Biomarker level [2, 11]: 8.7 ng/mL; Pre-test biomarker level ([2]; person one, serum, before ATB): 0.5 ng/mL; VAF ([4]; person one, serum): 0.018 |
| – | – | – | – | [Zn] [Zinc] | – | – | 4.8 ng/MM WBC | 14.1 ng/MM WBC | 2.8 ng/MM WBC | – | – | – | 1.333 | – | Follow-up Nutrient Level [2, 12]: 1550 ng/mL; Actual Nutrient Value (ANV) [2, 13]: 500 ng/mL; Post-test biomarker level ([2]; person two, level: Questionnaire, after ATB): 1100 ng/mL; Follow-up Biomarker level ([2]; person two, level: Questionnaire, after customized blend): 1470 ng/mL; Pre-test biomarker level ([2]; person two, level: Questionnaire, before ATB): 750 ng/mL; UTL ([5]; Table 18, person one): 40 mg/day; UTL ([5]; Table 19, person two): 40 mg/day; UTL ([5]; Table 20, person three): 40 mg/day; VAF ([4]; person two, level: Questionnaire): 0.2333 |
| – | – | – | – | Cc1ncc(COP(=O)(O)O)c(C=O)c1O [vitamin B6, Pyridoxal 5-Phosphate] | – | – | – | – | – | – | – | – | – | – | Actual Nutrient Value (ANV) ([2]; in vivo): 130 ng/mL; Follow-up Nutrient Level ([2]; in vivo): 401 ng/mL; Actual Nutrient Value (ANV) [6]: 0.5 ng/mL; Follow-up Nutrient Level [6]: 0.9 ng/mL; change of nutrient level at follow-up testing [7]: moderately increased; nutrient zone at follow-up testing [7]: Zone 2 |
| 470 ng/mL | 1290 ng/mL | 220 ng/mL | 0.025 | Vitamin A | – | – | – | – | – | 2.1 pg/MM WBC | 14.5 pg/MM WBC | 0.2 pg/MM WBC | – | 0.0019 | Follow-up Nutrient Level ([2]; person three, cells, after customized blend): 14.4 pg/MM WBC; Actual Nutrient Value (ANV) ([2]; person three, cells, before customized blend): 0.4 pg/MM WBC; Follow-up Nutrient Level [2, 12]: 1280 ng/mL; Actual Nutrient Value (ANV) [2, 13]: 350 ng/mL; UTL ([5]; Table 19, person two): 10,000 IU/day; UTL ([5]; Table 20, person three): 10,000 IU/day |
| 17800 ng/mL | 35400 ng/mL | 3200 ng/mL | 4.867 | Vitamin E | 5400 µg/L | 4200 µg/L | – | – | – | – | – | – | – | – | Post-test biomarker level ([2]; person one, serum, after ATB): 18200 ng/mL; Follow-up Biomarker level [2, 11]: 36500 ng/mL; Pre-test biomarker level ([2]; person one, serum, before ATB): 5500 ng/mL; VAF ([4]; person one, serum): 4.233 |

| Compound | Post-test biomarker level ([2]; person two, serum, after ATB) | Follow-up Biomarker level [2, 8] | Pre-test biomarker level ([2]; person two, serum, before ATB) | VAF ([4]; person two, serum) | Follow-up Nutrient Level [1] | Actual Nutrient Value (ANV) [1] | Post-test biomarker level ([2]; person one, cells, after ATB) | Follow-up Biomarker level [2, 9] | Pre-test biomarker level ([2]; person one, cells, before ATB) | Post-test biomarker level ([2]; person two, cells, after ATB) | Follow-up Biomarker level [2, 10] | Pre-test biomarker level ([2]; person two, cells, before ATB) | VAF ([4]; person one, cells) | VAF ([4]; person two, cells) | also measured |
| --- | --- | --- | --- | --- | --- | --- | --- | --- | --- | --- | --- | --- | --- | --- | --- |
| CC(C)(CO)[C@@H](O)C(=O)NCCC(=O)O [Vitamin B5] | 23.5 ng/mL | 311 ng/mL | 14.4 ng/mL | 18.2 | 14.4 µg/L | 5.4 µg/L | – | – | – | – | – | – | – | – | – |

Reference: patent publication US20260169011A1, “METHODS AND COMPOSITIONS FOR PROVIDING CUSTOMIZED NUTRITIONAL SUPPLEMENTS” (Vibrant Holdings LLC, priority 2023, published 2026)
